Laboratory results: paper PMC8704315, “Lichen-Derived Compounds and Extracts as Biologically Active Substances with Anticancer and Neuroprotective Properties” (Pharmaceuticals, 2021)
Where “and” joins values, the source holds several entries; their conditions need not be identical. Identical values can stand only once. Like-named read-outs stand apart in the source and are kept apart here.

How the values were obtained:
[1] = DPPH radical scavenging assay; conditions: highest concentration 750.0 µg/mL for substances, 2500.0 µg/mL for extracts; ± SEM, n = 3
T98G cell line = assay: MTT cell viability assay, 48 h, T98G; format: cell-based, Human; conditions: for IC50: Homo sapiens, T98G, read-out: IC50 T98G
Method: Stock solutions in dimethylsulfoxide DMSO (Sigma-Aldrich, St. Louis, MO, USA), (10 mM for compounds and 10 mg/mL for extracts) were prepared and stored at −20 °C. For the experiments, the stock solutions were diluted ex tempore to the final selected concentration with complete cell culture medium.
Human glioblastoma A-172 and T98G cell lines were purchased from the American Type Culture Collection (ATCC, Manassas, VA, USA), and the European Collection of Authenticated Cell Cultures (ECACC, Salisbury, UK), respectively. The cells were grown at 37 °C in 95% humidified and 5% CO2 atmosphere. Media recommended by the provider were used to cultivate the cells: ATCC-formulated Dulbecco’s modified Eagle’s medium (DMEM) (Sigma Aldrich, St. Louis, MO, USA), and ATCC-formulated Eagle’s Minimum Essential Medium (EMEM) (Sigma-Aldrich, St. Louis, MO, USA) were used for A-172 and T98G cells, respectively. Moreover, the media were supplemented with 10% fetal bovine serum (FBS) (Biowest, France) and 1% antibiotics (penicillin and streptomycin) solution (Sigma-Aldrich, St. Louis, MO, USA). The medium for the T98G cell line was additionally supplemented with 2 mM glutamine, 1% non-essential amino acids, and 1% sodium pyruvate (all obtained from Sigma Aldrich, St. Louis, MO, USA). For the experiments, the amount of FBS was reduced to 5%. All experiments were carried out 24 h after the cells were seeded on 96-well plates.
The effect of the tested compounds and extracts on GBM cell viability was assessed by measuring the ability of cells to metabolize 3-(4,5-dimethylthiazol-2-yl)-2,5-diphenyl-tetrazolium bromide (MTT), as previously described. In brief, 1 × 10^4 cells per well were seeded on 96-well plates. After 24 h incubation, they were treated with varying concentrations of lichen-derived compounds (1, 5, 10, 25, 50 and 100 µM) and extracts (1, 5, 10, 25, 50 and 100 µg/mL). Cells treated with medium containing the respective concentrations of DMSO (Sigma-Aldrich, St. Louis, MO, USA) were used as a control. After 48 h incubation the cells were washed with phosphate-buffered saline (PBS) buffer and incubated for 4 h in the presence of PBS containing 0.5 mg/mL MTT salt (Merck, Darmstadt, Germany). Next, the formazan crystals were dissolved in acidic isopropanol. In order to enhance dissolution of formazan crystals the plates were shaken on the orbital shaker for 30 min. Finally, the absorbance was measured at λ = 570 nm and λ = 690 nm on the microplate reader (Tecan Infinite M200). All the experiments were repeated three times with at least four measurements per assay.

[2] = biological target: T1, glutathione reductase (GR) (Saccharomyces cerevisiae, UniProt P41921); assay: Effect on glutathione reductase activity; format: biochemical; conditions: 444.4 μg/mL in the reaction mixture; on GR Inhibition under Reaction Conditions (%): key: -: not active
T1 construct: purchased Sigma Aldrich G3664
Method: Sample (20 µL, 5 mg/mL of pure DMSO) was mixed with 10 μL of EDTA solution and 12 μL of GSSG solution and incubated for 5 min at 25 °C; 4 μL of NADPH solution and was then added (all reagents were dissolved in […] sodium phosphate buffer, pH 7.6), and the initial absorbance (340 nm) was recorded. The reaction was then started by addition of 2 U glutathione reductase (2 μL, Sigma Aldrich no G3664), 177 μL of […] sodium phosphate buffer, and the absorbance was recorded after 5 min of incubation at 25 °C. Concentrations of reagents in the final mixture ([…]) were as follows: 0.5 mM EDTA, 10 mM GSSG and 10 mM NADPH. Blank sample was prepared with buffer instead of the sample and background was measured (mixture containing studied sample and buffer only). One unit of enzyme activity has been defined as nMol of NADPH consumed/min·mL sample, in comparison with nMol of NADPH consumed/min in blank (reagent) sample [75].

[3] = biological target: T2, COX-2 enzyme (Human recombinant) (Homo sapiens, UniProt P35354); assay: COX-2 activity assay (Cayman COX Activity Assay Kit); format: biochemical; conditions: for inhibition at 250 µg/mL: read-out: COX-2 Inhibition (%)
T2 construct: purchased Cayman 60122
T2 sequence (P35354 18-604): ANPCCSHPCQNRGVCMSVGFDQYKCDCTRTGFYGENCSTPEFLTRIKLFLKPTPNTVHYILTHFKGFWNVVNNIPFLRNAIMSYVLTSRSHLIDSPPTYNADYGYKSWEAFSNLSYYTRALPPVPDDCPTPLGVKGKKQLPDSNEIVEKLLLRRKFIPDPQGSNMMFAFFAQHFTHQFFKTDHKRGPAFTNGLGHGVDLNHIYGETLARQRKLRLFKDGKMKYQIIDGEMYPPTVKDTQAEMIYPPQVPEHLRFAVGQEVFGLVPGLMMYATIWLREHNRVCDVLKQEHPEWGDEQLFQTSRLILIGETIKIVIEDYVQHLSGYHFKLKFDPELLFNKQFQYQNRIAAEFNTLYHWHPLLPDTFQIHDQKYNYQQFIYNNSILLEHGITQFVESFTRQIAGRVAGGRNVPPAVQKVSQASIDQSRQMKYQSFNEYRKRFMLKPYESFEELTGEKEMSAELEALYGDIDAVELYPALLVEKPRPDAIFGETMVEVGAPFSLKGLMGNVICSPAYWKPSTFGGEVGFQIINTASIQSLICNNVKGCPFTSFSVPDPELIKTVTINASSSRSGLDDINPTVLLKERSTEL
Method: A volume of 0.01 mL of the studied sample, dissolved in pure DMSO to obtain 5 mg/mL, was mixed with 0.12 mL of Tris buffer (100 mM, pH 8.0), 0.01 mL hemin, shaken and left for 5 min at 25 °C followed by addition of 0.02 mL colorimetric substrate and 0.02 mL arachidonic acid solution. To start the reaction, 0.02 mL of COX-2 solution was added. The increase of absorbance during incubation at room temperature was recorded at 590 nm. Negative (blank) sample (buffer instead of studied sample) and positive sample (COX-2 inhibitor DuP-697) were run simultaneously. Background of studied samples (0.01 mL of sample mixed with 0.19 mL buffer) was also measured and included in the calculations. Each sample was run in at least 4 repeats. Inhibition of the enzyme activity was expressed in % (indicates by how many % the activity has been reduced in relation to the negative or blank sample for which the maximum activity was assumed as 100%, under the conditions used in the method). Also, inhibition of enzyme activity was expressed as acetylsalicylic acid equivalent concentration (mg/mL). For this purpose, acetylsalicylic acid solutions were prepared at 14 concentrations (0.2-10.0 mg/mL) and analyzed similarly to tested samples.

[4] = sample 5 mg/mL stock, 250.0 µg/mL in assay, ± SEM

T1 sequence (P41921 17-483): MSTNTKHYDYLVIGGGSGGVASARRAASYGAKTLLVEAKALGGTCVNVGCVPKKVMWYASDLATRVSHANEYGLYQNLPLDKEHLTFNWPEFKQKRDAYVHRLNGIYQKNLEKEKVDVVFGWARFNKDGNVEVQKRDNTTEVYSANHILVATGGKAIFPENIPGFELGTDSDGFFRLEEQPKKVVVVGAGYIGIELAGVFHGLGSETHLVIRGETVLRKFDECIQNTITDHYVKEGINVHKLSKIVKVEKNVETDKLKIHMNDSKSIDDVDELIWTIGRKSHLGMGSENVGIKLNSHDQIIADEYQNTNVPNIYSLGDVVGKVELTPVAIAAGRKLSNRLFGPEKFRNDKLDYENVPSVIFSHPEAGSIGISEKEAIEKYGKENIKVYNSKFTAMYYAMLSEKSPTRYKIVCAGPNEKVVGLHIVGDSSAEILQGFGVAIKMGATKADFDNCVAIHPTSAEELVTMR

| Structure (SMILES) | DPPH IC50 [1] | IC50 (T98G cell line; 48 h) | GR Inhibitory Activity (nMol Depleted NADPH/min Incubation) [2] | inhibition at 444.4 µg/mL ([2]; read-out: GR Inhibition under Reaction Conditions (%)) | inhibition at 250 µg/mL [3] | Equivalent Concentration of Acetylsalicylic Acid [3, 4] | IC50 (T98G cell line; 48 h treatment, MTT, ± SEM) | reduction in cell viability T98G (T98G cell line; highest tested concentration (100 µM), 48 h MTT) | GR Inhibition under Reaction Conditions (%) [2] | inhibition at 250 µg/mL [3, 4] |
| --- | --- | --- | --- | --- | --- | --- | --- | --- | --- | --- |
| CC(=O)C1=C(O)C=C2Oc3c(C(C)=O)c(O)c(C)c(O)c3C2(C)C1=O (single isomer, unassigned; (-)) [(−)-Usnic acid, (−)-usnic acid] | >750.0 µg/mL | 13 µg/mL and 37.8 µM | 710.2 ± 42.3 nMol Depleted NADPH/min Incubation | 18.2 ± 2.2% | 59.3 ± 3.5% | 12.9 ± 1.5 mg/mL |  |  |  |  |
| COc1cc(C)c(C(=O)Oc2cc(C)c(C(=O)O)c(O)c2)c(O)c1 [Evernic acid, evernic acid] | >750.0 µg/mL |  |  |  |  | 10.9 ± 1.8 mg/mL | > 33.2 µg/mL and > 100 µM | ~ 20% | - | 50.7 ± 2.1% |
| Cc1cc(O)c(C=O)c2c1C(=O)Oc1c(CO)c(O)c3c(c1O2)C(O)OC3=O (centres unmarked) [Salazinic acid, salazinic acid] | >750.0 µg/mL |  |  |  |  | 12.9 ± 0.1 mg/mL | > 38.8 µg/mL and > 100 µM |  | - | 60.3 ± 3% |
